Results published in patent US4684664A, “Derivatives of β-(4-isocyano-1,2,3,4-diepoxycyclopentyl) acrylic acid” (Kureha Kagaku Kogyo Kabushiki Kaisha, priority 1984, dated 1987).
Converted amounts (≈) assume the structure as drawn.

Legend:
Format in all cases: cell-based
[1] = tested on: Escherichia coli K12 C600 IAM 1264; assay: Antibacterial activity, agar-dilution MIC, organism No. 6; settings: Escherichia coli, IAM1264; Organism No. 6, bouillon-agar; read-out: Minimum Inhibitory Concentration
In short: (§1)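 For each organism the specimen was serially diluted into bouillon agar, and inhibition was scored to give the MIC in μg/ml of culture medium.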

Enterobacter cloacae 963 = assay: Antibacterial activity, agar-dilution MIC, organism No. 24; settings: Enterobacter cloacae, 963; Organism No. 24, bouillon-agar; read-out: Minimum Inhibitory Concentration
In short: as §1

[2] = tested on: Mycoplasma pneumoniae IID817; assay: Antimycoplasmal activity, MIC by phenol red colour change, organism No. 28; settings: Mycoplasma, IID817; Organism No. 28, PPLO broth + 1% glucose, 37° C.; read-out: Minimum Inhibitory Concentration (MIC)
Method: Mycoplasma pneumoniae IID817 was used as the test microorganism in a culture medium prepared by adding 1% of glucose to "PPLO broth (manufactured by Difco Co.) liquid culture medium" at 37° C. with phenol red as an indicator, thereby culturing the test microorganism.

[3] = tested on: Aspergillus niger IFO 6342; assay: Antifungal activity, agar-dilution MIC, organism No. 30; settings: Aspergillus niger, IFO6342; Organism No. 30, bouillon-agar; read-out: Minimum Inhibitory Concentration
In short: as §1

[4] = tested on: Pseudomonas aeruginosa PAO 1; assay: Antibacterial activity, agar-dilution MIC, organism No. 17; settings: Pseudomonas aeruginosa, PAO1; Organism No. 17, bouillon-agar; read-out: Minimum Inhibitory Concentration
In short: as §1

[5] = tested on: Bacillus subtilis ATCC 6633; assay: Antibacterial activity, agar-dilution MIC, organism No. 14; settings: Bacillus subtilis, ATCC6633; Organism No. 14, bouillon-agar; read-out: Minimum Inhibitory Concentration
In short: as §1

Salmonella typhi 901 = assay: Antibacterial activity, agar-dilution MIC, organism No. 9; settings: Salmonella enterica, TYPHI, read-out: Minimum Inhibitory Concentration
In short: as §1

Proteus vulgaris HX-19 = assay: Antibacterial activity, agar-dilution MIC, organism No. 21; settings: Proteus vulgaris, HX19; Organism No. 21, bouillon-agar; read-out: Minimum Inhibitory Concentration
In short: as §1

[6] = tested on: Staphylococcus aureus Terajima; assay: Antibacterial activity, agar-dilution MIC, organism No. 2; settings: Staphylococcus aureus; Organism No. 2, bouillon-agar; read-out: Minimum Inhibitory Concentration
In short: as §1

[7] = tested on: Pseudomonas aeruginosa NCTC 10490; assay: Antibacterial activity, agar-dilution MIC, organism No. 16; settings: Pseudomonas aeruginosa, NCTC10490; Organism No. 16, bouillon-agar; read-out: Minimum Inhibitory Concentration
In short: as §1

[8] = tested on: Streptococcus pyogenes Cook; assay: Antibacterial activity, agar-dilution MIC, organism No. 4; settings: Streptococcus pyogenes; Organism No. 4, bouillon-agar; read-out: Minimum Inhibitory Concentration
In short: as §1

[9] = tested on: Klebsiella pneumoniae PCI-602; assay: Antibacterial activity, agar-dilution MIC, organism No. 7; settings: Klebsiella pneumoniae, PCI602; Organism No. 7, bouillon-agar; read-out: Minimum Inhibitory Concentration
In short: as §1

[10] = tested on: Candida albicans IAM 4905; assay: Antifungal activity, agar-dilution MIC, organism No. 29; settings: Candida albicans, IAM4905; Organism No. 29, bouillon-agar; read-out: Minimum Inhibitory Concentration
In short: as §1

[11] = tested on: Proteus rettgeri IFO 3850; assay: Antibacterial activity, agar-dilution MIC, organism No. 22; settings: Providencia rettgeri, IFO3850; Organism No. 22, bouillon-agar; read-out: Minimum Inhibitory Concentration
In short: as §1

[12] = tested on: Staphylococcus aureus MS 353; assay: Antibacterial activity, agar-dilution MIC, organism No. 3; settings: Staphylococcus aureus, MS353; Organism No. 3, bouillon-agar; read-out: Minimum Inhibitory Concentration
In short: as §1

[13] = tested on: Staphylococcus aureus FDA 209PJc-1; assay: Antibacterial activity, agar-dilution MIC, organism No. 1; settings: Staphylococcus aureus, FDA209PJC1; Organism No. 1, bouillon-agar; read-out: Minimum Inhibitory Concentration
In short: as §1

[14] = tested on: Salmonella shottmuelleri 8006; assay: Antibacterial activity, agar-dilution MIC, organism No. 11; settings: Salmonella, 8006; Organism No. 11, bouillon-agar; read-out: Minimum Inhibitory Concentration
In short: as §1

Proteus vulgaris OX-19 = assay: Antibacterial activity, agar-dilution MIC, organism No. 20; settings: Proteus vulgaris, OX19; Organism No. 20, bouillon-agar; read-out: Minimum Inhibitory Concentration
In short: as §1

[15] = tested on: Proteus morganii IFO 3848; assay: Antibacterial activity, agar-dilution MIC, organism No. 18; settings: Morganella morganii, IFO3848; Organism No. 18, bouillon-agar; read-out: Minimum Inhibitory Concentration
In short: as §1

[16] = tested on: Enterobacter aerogenes ATCC 13048; assay: Antibacterial activity, agar-dilution MIC, organism No. 23; settings: Klebsiella aerogenes, ATCC13048; Organism No. 23, bouillon-agar; read-out: Minimum Inhibitory Concentration
In short: as §1

[17] = tested on: Escherichia coli NIHJ-JC-2; assay: Antibacterial activity, agar-dilution MIC, organism No. 5; settings: Escherichia coli, NIHJJC2; Organism No. 5, bouillon-agar; read-out: Minimum Inhibitory Concentration
In short: as §1

[18] = tested on: Salmonella paratyphi-A 1015; assay: Antibacterial activity, agar-dilution MIC, organism No. 10; settings: Salmonella enterica, PARATYPHI, read-out: Minimum Inhibitory Concentration
In short: as §1

[19] = tested on: Streptococcus pyogenes IFO 3340; assay: Antibacterial activity, agar-dilution MIC, organism No. 26; settings: Streptococcus pyogenes, IFO3340; Organism No. 26, bouillon-agar; read-out: Minimum Inhibitory Concentration
In short: as §1

[20] = tested on: Serratia marcescens IAM 1184; assay: Antibacterial activity, agar-dilution MIC, organism No. 13; settings: Serratia marcescens, IAM1184; Organism No. 13, bouillon-agar; read-out: Minimum Inhibitory Concentration
In short: as §1

[21] = tested on: Salmonella typhimurium IID 971; assay: Antibacterial activity, agar-dilution MIC, organism No. 8; settings: Salmonella enterica; Organism No. 8, bouillon-agar; read-out: Minimum Inhibitory Concentration
In short: as §1

[22] = tested on: Salmonella enteritidis G 14; assay: Antibacterial activity, agar-dilution MIC, organism No. 12; settings: Salmonella enterica, ENTERITIDIS; Organism No. 12, bouillon-agar; read-out: Minimum Inhibitory Concentration
In short: as §1

[23] = tested on: Pseudomonas aeruginosa IFO 3445; assay: Antibacterial activity, agar-dilution MIC, organism No. 15; settings: Pseudomonas aeruginosa, IFO3445; Organism No. 15, bouillon-agar; read-out: Minimum Inhibitory Concentration
In short: as §1

[24] = tested on: Streptococcus faecium IFO 3826; assay: Antibacterial activity, agar-dilution MIC, organism No. 27; settings: Enterococcus faecium, IFO3826; Organism No. 27, bouillon-agar; read-out: Minimum Inhibitory Concentration
In short: as §1

[25] = tested on: Proteus mirabilis IFO 3849; assay: Antibacterial activity, agar-dilution MIC, organism No. 19; settings: Proteus mirabilis, IFO3849; Organism No. 19, bouillon-agar; read-out: Minimum Inhibitory Concentration
In short: as §1

[26] = tested on: Micrococcus luteus ATCC 9341; assay: Antibacterial activity, agar-dilution MIC, organism No. 25; settings: Micrococcus luteus, ATCC9341; Organism No. 25, bouillon-agar; read-out: Minimum Inhibitory Concentration
In short: as §1

SMILES	MIC [1] [µg/mL]	MIC (Enterobacter cloacae 963) [µg/mL]	MIC [2] [µg/mL]	MIC [3] [µg/mL]	MIC [4] [µg/mL]	MIC [5] [µg/mL]	MIC (Salmonella typhi 901) [µg/mL]	MIC (Proteus vulgaris HX-19) [µg/mL]	MIC [6] [µg/mL]	MIC [7] [µg/mL]	MIC [8] [µg/mL]	MIC [9] [µg/mL]	MIC [10] [µg/mL]	MIC [11] [µg/mL]	MIC [12] [µg/mL]	MIC [13] [µg/mL]	MIC [14] [µg/mL]	MIC (Proteus vulgaris OX-19) [µg/mL]	MIC [15] [µg/mL]	MIC [16] [µg/mL]	also measured
[C-]#[N+]C12CC3(/C=C/C(=O)OCc4c(C)cc(C)cc4C)OC3C1O2 (stereo not drawn) [compound 11]	25 (≈ 76.8 µM)	> 100	< 0.2	6.25 (≈ 19.2 µM)	> 100	0.78 (≈ 2.4 µM)	6.25 (≈ 19.2 µM)	3.13 (≈ 9.62 µM)	6.25 (≈ 19.2 µM)	> 100	3.13 (≈ 9.62 µM)	6.25 (≈ 19.2 µM)	1.56 (≈ 4.79 µM)	12.5 (≈ 38.4 µM)	3.13 (≈ 9.62 µM)	3.13 (≈ 9.62 µM)	12.5 (≈ 38.4 µM)	6.25 (≈ 19.2 µM)	3.13 (≈ 9.62 µM)	> 100	MIC [17]: 25 µg/mL (≈ 76.8 µM); MIC [18]: 12.5 µg/mL (≈ 38.4 µM); MIC [19]: 3.13 µg/mL (≈ 9.62 µM); MIC [20]: 12.5 µg/mL (≈ 38.4 µM); MIC [21]: 12.5 µg/mL (≈ 38.4 µM); MIC [22]: 12.5 µg/mL (≈ 38.4 µM); MIC [23]: > 100 µg/mL; MIC [24]: 6.25 µg/mL (≈ 19.2 µM); MIC [25]: 12.5 µg/mL (≈ 38.4 µM); MIC [26]: < 0.1 µg/mL
[C-]#[N+]C12CC3(/C=C/C(=O)O)OC3C1O2 (stereo not drawn) [α substituted acrylic acid, β-(4-isocyano-1,2-3,4-diepoxycyclopentyl)acrylic acid, reference compound]	12.5 (≈ 64.7 µM)	100 (≈ 518 µM)	< 0.2	25 (≈ 129 µM)	200 (≈ 1040 µM)	25 (≈ 129 µM)	6.25 (≈ 32.4 µM)	6.25 (≈ 32.4 µM)	50 (≈ 259 µM)	200 (≈ 1040 µM)	25 (≈ 129 µM)	50 (≈ 259 µM)	12.5 (≈ 64.7 µM)	50 (≈ 259 µM)	25 (≈ 129 µM)	25 (≈ 129 µM)	12.5 (≈ 64.7 µM)	6.25 (≈ 32.4 µM)	12.5 (≈ 64.7 µM)	200 (≈ 1040 µM)	MIC [17]: 12.5 µg/mL (≈ 64.7 µM); MIC [18]: 12.5 µg/mL (≈ 64.7 µM); MIC [19]: 6.25 µg/mL (≈ 32.4 µM); MIC [20]: 50 µg/mL (≈ 259 µM); MIC [21]: 12.5 µg/mL (≈ 64.7 µM); MIC [22]: 3.13 µg/mL (≈ 16.2 µM); MIC [23]: 200 µg/mL (≈ 1040 µM); MIC [24]: 50 µg/mL (≈ 259 µM); MIC [25]: 12.5 µg/mL (≈ 64.7 µM); MIC [26]: 12.5 µg/mL (≈ 64.7 µM)
[C-]#[N+]C12CC3(/C=C/C(=O)Nc4ccc(C(=O)O)cc4)OC3C1O2 (stereo not drawn) [compound 51]	200 (≈ 640 µM)	> 200	< 0.2	100 (≈ 320 µM)	> 200	50 (≈ 160 µM)	50 (≈ 160 µM)	12.5 (≈ 40 µM)	12.5 (≈ 40 µM)	> 200	12.5 (≈ 40 µM)	100 (≈ 320 µM)	100 (≈ 320 µM)	> 200	6.25 (≈ 20 µM)	12.5 (≈ 40 µM)	50 (≈ 160 µM)	12.5 (≈ 40 µM)	1.56 (≈ 5 µM)	> 200	MIC [17]: 200 µg/mL (≈ 640 µM); MIC [18]: 50 µg/mL (≈ 160 µM); MIC [19]: 25 µg/mL (≈ 80.1 µM); MIC [20]: > 200 µg/mL; MIC [21]: 100 µg/mL (≈ 320 µM); MIC [22]: 50 µg/mL (≈ 160 µM); MIC [23]: > 200 µg/mL; MIC [24]: 12.5 µg/mL (≈ 40 µM); MIC [25]: > 200 µg/mL; MIC [26]: 1.56 µg/mL (≈ 5 µM)
